Test results: PubChem BioAssay (NCI)
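Grown in 96-well plates, cells were treated for 48 hours with each compound at five concentrations. Insufficient inhibition: endpoint recorded as highest concentration tested. Abbreviation: GI50, concentration required for 50% inhibition of growth. TGI: concentration producing complete growth inhibition.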

Key:
Test in all cases: growth of human tumour cells (NCI), 48 h
SF-295 CNS = test system: SF-295 CNS
NCI-H23 lung = test system: NCI-H23 lung
A549 NSCLC = test system: A549 NSCLC
SK-OV-3 ovarian = test system: SK-OV-3 ovarian
HS 578T breast = test system: HS 578T breast
KM12 colon = test system: KM12 colon
COLO 205 colon = test system: COLO 205 colon
HT29 colon = test system: HT29 colon
LOX IMVI melanoma = test system: LOX IMVI melanoma
SR leukemia = test system: SR leukemia

## O=C(/C=C/c1ccccc1)CCC1C(=O)NC(=O)NC1=O
SF-295 CNS
  TGI: > 100 µM
NCI-H23 lung
  TGI: > 100 µM
A549 NSCLC
  TGI: > 100 µM
SK-OV-3 ovarian
  TGI: > 100 µM
HS 578T breast
  TGI: > 100 µM
KM12 colon
  TGI: > 100 µM
COLO 205 colon
  TGI: > 100 µM
HT29 colon
  TGI: > 100 µM
LOX IMVI melanoma
  TGI: > 100 µM

## CC[C@H](C)C(=O)O[C@H]1CCC=C2C=C[C@H](C)C(CCC3C[C@@H](O)CC(=O)O3)[C@H]21 (some centres not stated)
SF-295 CNS
  GI50: 1.58 µM
  TGI: > 100 µM
NCI-H23 lung
  GI50: 3.5 µM
  TGI: > 100 µM
A549 NSCLC
  GI50: 17.7 µM
  TGI: > 100 µM
SK-OV-3 ovarian
  TGI: > 100 µM
HS 578T breast
  GI50: 5.19 µM
  TGI: > 100 µM
KM12 colon
  GI50: 45.6 µM
  TGI: > 100 µM
COLO 205 colon
  GI50: 10.5 µM
  TGI: 36.8 µM
HT29 colon
  GI50: 29 µM
  TGI: > 100 µM
LOX IMVI melanoma
  GI50: 0.965 µM
  TGI: > 100 µM

## COc1ccccc1NC(=O)C1=C(C)NC(C)=C(C(=O)Nc2ccccc2OC)C1c1ccccc1OC
SF-295 CNS
  TGI: > 100 µM
NCI-H23 lung
  TGI: > 100 µM
A549 NSCLC
  TGI: > 100 µM
SK-OV-3 ovarian
  TGI: > 100 µM
KM12 colon
  TGI: > 100 µM
COLO 205 colon
  TGI: > 100 µM
HT29 colon
  TGI: > 100 µM
LOX IMVI melanoma
  TGI: > 100 µM
SR leukemia
  TGI: > 100 µM

## CC(=O)OCC1OC(S[As](C)C)C(OC(C)=O)C1OC(C)=O (configuration not stated)
SF-295 CNS
  GI50: 2.06 µM
  TGI: 7.33 µM
NCI-H23 lung
  GI50: 0.551 µM
  TGI: 3.63 µM
A549 NSCLC
  GI50: 1.94 µM
  TGI: 13.6 µM
SK-OV-3 ovarian
  GI50: 1.14 µM
  TGI: 7.71 µM
HS 578T breast
  GI50: 0.319 µM
  TGI: 0.841 µM
KM12 colon
  GI50: 2 µM
  TGI: 13.6 µM
COLO 205 colon
  GI50: 0.176 µM
  TGI: 2.66 µM
LOX IMVI melanoma
  GI50: 0.257 µM
  TGI: 0.991 µM
SR leukemia
  GI50: 0.025 µM
  TGI: 0.29 µM

## O=S1c2ccc(Cl)cc2CC(SSC2Cc3cc(Cl)ccc3S(=O)c3ccccc32)c2ccccc21 (configuration not stated)
SF-295 CNS
  TGI: > 100 µM
NCI-H23 lung
  TGI: > 100 µM
A549 NSCLC
  TGI: > 100 µM
SK-OV-3 ovarian
  TGI: > 100 µM
KM12 colon
  TGI: > 100 µM
COLO 205 colon
  TGI: > 100 µM
HT29 colon
  TGI: > 100 µM
LOX IMVI melanoma
  TGI: > 100 µM

## COC(=O)C1=CC2OC13CC1CCC3(C2=O)C1(C)C (configuration not stated)
SF-295 CNS
  TGI: 40.5 µM
NCI-H23 lung
  TGI: 32.1 µM
A549 NSCLC
  TGI: 92.7 µM
SK-OV-3 ovarian
  TGI: 38.1 µM
KM12 colon
  TGI: 30.6 µM
COLO 205 colon
  TGI: 29.8 µM
HT29 colon
  TGI: 27.7 µM

## COC(=O)C1=CC2OC1(C)C1(CC1)C2=O (configuration not stated)
SF-295 CNS
  TGI: 34.4 µM
NCI-H23 lung
  TGI: 49.7 µM
A549 NSCLC
  TGI: 70 µM
SK-OV-3 ovarian
  TGI: > 100 µM
KM12 colon
  TGI: 43.9 µM
COLO 205 colon
  TGI: 33.5 µM
HT29 colon
  TGI: 25.5 µM
LOX IMVI melanoma
  TGI: 28.5 µM
SR leukemia
  TGI: 34.6 µM

## CCOC(=O)/C=C1\Nc2ccccc2-n2nnnc21
SF-295 CNS
  TGI: > 100 µM
NCI-H23 lung
  TGI: > 100 µM
A549 NSCLC
  TGI: > 100 µM
SK-OV-3 ovarian
  TGI: > 100 µM
KM12 colon
  TGI: > 100 µM
COLO 205 colon
  TGI: > 100 µM
HT29 colon
  TGI: > 100 µM
LOX IMVI melanoma
  TGI: > 100 µM
SR leukemia
  TGI: > 100 µM

## COC(=O)C(=O)C(C(=O)C(=O)Nc1cc([N+](=O)[O-])ccc1[N+](=O)[O-])c1nc2ccc(C(=O)c3ccccc3)cc2[nH]c1=O (configuration not stated)
SF-295 CNS
  TGI: > 100 µM
NCI-H23 lung
  TGI: 70.4 µM
A549 NSCLC
  TGI: > 100 µM
SK-OV-3 ovarian
  TGI: > 100 µM
KM12 colon
  TGI: > 100 µM
COLO 205 colon
  TGI: > 100 µM
HT29 colon
  TGI: > 100 µM
LOX IMVI melanoma
  TGI: > 100 µM
SR leukemia
  TGI: 60.2 µM

## Cc1c(CCl)c(=O)oc2c(C)c3occ(CCl)c(=O)c3cc12
SF-295 CNS
  TGI: > 100 µM
NCI-H23 lung
  TGI: 83.7 µM
A549 NSCLC
  TGI: > 100 µM
SK-OV-3 ovarian
  TGI: > 100 µM
KM12 colon
  TGI: > 100 µM
COLO 205 colon
  TGI: 32.9 µM
LOX IMVI melanoma
  TGI: 30.8 µM
